Experimental data reported in publication PMC10279719 (Nature Communications, 2023).

Target: T1, CrkII^NSH3 (Homo sapiens, UniProt P46108)
T1 construct: CrkII^NSH3; UniProt P46108-1, residues 134–191; 8-His tag with TEV protease cleavage site (N); made in house; host or cells: E. coli C41 (DE3)
Test: SPR, PEAK PRM and tandem peptides binding to immobilised CrkII NSH3 domain
Settings: peptide analyte over amine-coupled CrkII NSH3 (CM5); Biacore S200, HBS-TP pH 7.4, 20 °C; steady-state 1:1 fit; mean ± S.E.M. (N ≥ 3) or SD (N = 2); read-out: SPR KD, CrkII N-SH3
Procedure: SPR binding studies of PEAK PRM peptides to CrkII^NSH3 were performed using a Biacore S200 Instrument (Cytiva). Purified CrkII^NSH3 was diluted to 5 µg ml^−1 in 10 mM sodium acetate pH 4.0 and amine coupled at 25 °C to a Series S CM5 sensor chip, in HBS-N running buffer (20 mM HEPES pH 7.4, 150 mM NaCl) to a final immobilization level of 1100–1400 response units (RU), followed by surface deactivation using 1 M ethanolamine. A blank activation/deactivation was used for the reference surface. Peptide binding studies were performed at 20 °C in HBS-TP running buffer (20 mM HEPES pH 7.4, 150 mM NaCl, 1 mM TCEP, 0.005% (v/v) Tween-P20). […] Peptide stocks were further diluted to in running buffer to 10 or 20 µM and prepared as a 11-point concentration series (2-fold serial dilution, […] for PEAK PRM peptides, or 20 µM–20 nM for PEAK tandem motif peptides). Samples were injected in a multi-cycle run (flow rate 30 µl min^−1, contact time of 60 s, dissociation 120 s) without regeneration. Sensorgrams were double referenced, and steady-state binding data fitted using a 1:1 binding model using Biacore S200 Evaluation Software (Cytiva, v. 1.1).

T1 sequence (P46108 134-191): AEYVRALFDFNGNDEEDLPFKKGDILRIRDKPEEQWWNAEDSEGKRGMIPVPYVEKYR

With CC[C@H](C)[C@H](NC(=O)[C@H](CCCCN)NC(=O)[C@H](CCCCN)NC(=O)[C@@H]1CCCN1C(=O)[C@H](CC(C)C)NC(=O)[C@@H]1CCCN1C(=O)[C@@H]1CCCN1C(=O)[C@@H]1CCCN1C(=O)[C@H](CC(C)C)NC(=O)[C@@H]1CCCN1C(C)=O)C(=O)N[C@@H](CC(C)C)C(=O)N[C@H](C(=O)N[C@@H](CCCNC(=N)N)C(=O)N[C@H](C(=O)N[C@@H](CCC(N)=O)C(=O)N[C@@H](CO)C(=O)N[C@@H](CC(C)C)C(=O)N1CCC[C@H]1C(=O)N[C@H](C(=O)N[C@@H](CCCNC(=N)N)C(=O)N[C@@H](CCCNC(=N)N)C(N)=O)[C@@H](C)O)[C@@H](C)O)[C@@H](C)O (single isomer, unassigned) [PEAK3^tandem] as the compound, how does the Kd read?
The Kd was 600 ± 20 nM.
